Measurements as given in patent publication US6737383B1, “Herbicidal oxadiazolidines” (priority 1999, dated 2004).

What was measured:
[1] = test system: cocklebur; test: Test B pre/postemergence cocklebur; assay type: in vivo, Xanthium strumarium
Method in brief: (§1)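 Response is a visual 0-to-10 score relative to untreated plants, where 0 means no effect and 10 means complete control, taken twelve to sixteen days after application. Treatments went onto soil at planting and onto foliage of 1- to 4-leaf plants, using a surfactant-containing non-phytotoxic solvent.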

[2] = test system: bamyardgrass; test: Test B flood test barnyardgrass; assay type: in vivo, Echinochloa crus-galli; details: for Plant response rating, Barnyardgrass (0 to 10 scale, 0 is no effect, 10 is complete control) / Barnyardgrass plant response rating (0 to 10 scale, 0 is no effect, 10 is complete control): visual evaluation after twelve to sixteen days; for Barnyardgrass plant response rating (0 to 10 scale, 0 is no effect, 10 is complete control): under heading Pre-emergence
Method in brief: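 Read-out is a visual response score from 0 (no effect) to 10 (complete control), assigned by comparison with untreated controls. Treatment was applied at the 2-leaf stage, and plants stayed in the greenhouse for twelve to sixteen days before scoring.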

[3] = test system: sugar beet; test: Test B pre/postemergence sugar beet; assay type: in vivo, Beta vulgaris
Method in brief: as §1

[4] = test system: rape; test: Test B pre/postemergence rape; assay type: in vivo, Brassica napus
Method in brief: as §1

[5] = Postemergence, Rate 250 g/ha, scale 0 to 10
[6] = Postemergence, Rate 500 g/ha, scale of 0 to 10 where 0 is no effect and 10 is complete control
[7] = Preemergence, Rate 62 g/ha, scale of 0 to 10 where 0 is no effect and 10 is complete control
[8] = Preemergence, Rate 125 g/ha, scale of 0 to 10 where 0 is no effect and 10 is complete control
[9] = Preemergence, Rate 250 g/ha, scale 0 to 10, 0 is no effect, 10 is complete control
[10] = Rate 62 g/ha, Postemergence, scale 0 to 10 (0 no effect, 10 complete control)
[11] = Rate 125 g/ha, Postemergence, scale 0 to 10, 0 is no effect, 10 is complete control
[12] = Rate 62 g/ha, flood test species, Pre-emergence
[13] = Rate 125 g/ha, flood test species
[14] = Rate 250 g/ha, Pre-emergence (flood test species), scale 0 to 10, 0 is no effect, 10 is complete control
[15] = Rate 500 g/ha, Pre-emergence, flood test species, scale 0 to 10 (0 no effect, 10 complete control)
[16] = Preemergence, Rate 500 g/ha, scale 0 to 10, 0 is no effect, 10 is complete control
[17] = Postemergence, Rate 62 g/ha, scale 0 to 10, 0 is no effect, 10 is complete control
[18] = Postemergence, Rate 250 g/ha, scale 0 to 10, 0 no effect, 10 complete control
[19] = Preemergence, Rate 31 g/ha, visual rating, scale 0 to 10 (0 no effect, 10 complete control)
[20] = Preemergence, Rate 62 g/ha, scale 0 to 10, 0 is no effect, 10 is complete control
[21] = Preemergence, Rate 125 g/ha, scale 0 to 10 (0 no effect, 10 complete control)
[22] = Preemergence, Rate 250 g/ha, scale of 0 to 10 where 0 is no effect and 10 is complete control
[23] = Rate 31 g/ha, Postemergence, scale 0 to 10
[24] = Rate 125 g/ha, Postemergence, scale 0 to 10, 0 no effect, 10 complete control
[25] = Rate 125 g/ha, Postemergence section (flood test species), scale 0 to 10, 0 no effect, 10 complete control
[26] = flood test, listed under Postemergence, Rate 250 g/ha, scale 0 to 10, 0 no effect, 10 complete control
[27] = Preemergence, Rate 500 g/ha, scale 0 (no effect) to 10 (complete control)
[28] = Rate 500 g/ha, Postemergence, scale 0 to 10, 0 no effect, 10 complete control
[29] = Postemergence, Rate 125 g/ha, scale 0 to 10, 0 is no effect, 10 is complete control
[30] = Preemergence, Rate 500 g/ha, scale of 0 to 10 where 0 is no effect and 10 is complete control

CC(C)N(C(=O)n1oc(=O)n(C(C)C(=O)N(C)C)c1=O)c1ccccc1 (centres unmarked) [Compound 479]
Cocklebur plant response rating [1, 5]: 0 | Cocklebur plant response rating [1, 6]: 0 | Plant response rating, Cocklebur [1, 7]: 0 | Plant response rating, Cocklebur [1, 8]: 0 | Cocklebur plant response rating [1, 9]: 0 | Cocklebur plant response rating [1, 10]: 0 | Cocklebur plant response rating [1, 11]: 0 | Plant response rating, Barnyardgrass (0 to 10 scale, 0 is no effect, 10 is complete control) [2, 12]: 0 | Barnyardgrass plant response rating (0 to 10 scale, 0 is no effect, 10 is complete control) [2, 13]: 0 | Barnyardgrass plant response rating [2, 14]: 0 | Barnyardgrass plant response rating [2, 15]: 0 | Sugarbeets plant response rating [3, 5]: 0 | Plant response rating, Sugarbeets [3, 7]: 0 | Plant response rating, Sugarbeets [3, 8]: 0 | Sugarbeets plant response rating [3, 9]: 2 | Sugarbeets plant response rating [3, 16]: 4 | Sugarbeets plant response rating [3, 10]: 0 | Sugarbeets plant response rating [3, 11]: 0 | Rape plant response rating [4, 5]: 0 | Plant response rating, Rape [4, 7]: 0 | Plant response rating, Rape [4, 8]: 0 | Rape plant response rating [4, 9]: 1 | Rape plant response rating [4, 16]: 4 | Rape plant response rating [4, 10]: 0 | Rape plant response rating [4, 11]: 0

CCN(C(=O)n1oc(=O)n(-c2c(C)cccc2C)c1=O)C1CCCCC1 [Compound 27]
Cocklebur plant response rating [1, 17]: 0 | Cocklebur plant response rating [1, 18]: 0 | Cocklebur plant response rating [1, 19]: 0 | Plant response rating, Cocklebur [1, 20]: 0 | Plant response rating, Cocklebur [1, 21]: 0 | Plant response rating, Cocklebur [1, 22]: 0 | Cocklebur plant response rating [1, 23]: 0 | Cocklebur plant response rating [1, 24]: 0 | Barnyardgrass plant response rating [2, 17]: 0 | Barnyardgrass plant response rating [2, 25]: 0 | Barnyardgrass plant response rating ([2]; Rate 500 g/ha, Postemergence section of Table B, 0 to 10 scale (0 no effect, 10 complete control)): 9 | Barnyardgrass plant response rating [2, 26]: 8 | Sugarbeets plant response rating [3, 17]: 0 | Sugarbeets plant response rating [3, 18]: 0 | Sugarbeets plant response rating [3, 19]: 0 | Plant response rating, Sugarbeets [3, 20]: 0 | Plant response rating, Sugarbeets [3, 21]: 0 | Plant response rating, Sugarbeets [3, 22]: 0 | Sugarbeets plant response rating [3, 24]: 0 | Rape plant response rating [4, 17]: 0 | Rape plant response rating [4, 18]: 0 | Rape plant response rating [4, 19]: 0 | Plant response rating, Rape [4, 20]: 0 | Plant response rating, Rape [4, 21]: 0 | Plant response rating, Rape [4, 22]: 0 | Rape plant response rating [4, 23]: 0 | Rape plant response rating [4, 24]: 0

Cc1cccc(Cl)c1-n1c(=O)on(C(=O)N(c2ccc(Cl)cc2)C(C)C)c1=O [Compound 54]
Cocklebur plant response rating [1, 17]: 0 | Cocklebur plant response rating [1, 18]: 0 | Plant response rating, Cocklebur [1, 20]: 0 | Plant response rating, Cocklebur [1, 21]: 0 | Plant response rating, Cocklebur [1, 22]: 0 | Cocklebur plant response rating [1, 27]: — 0 0 0 0 | Cocklebur plant response rating [1, 24]: 0 | Cocklebur plant response rating [1, 28]: 2 | Barnyardgrass plant response rating [2, 17]: 0 | Barnyardgrass plant response rating [2, 25]: 0 | Barnyardgrass plant response rating ([2]; Rate 500 g/ha, listed under Postemergence (flood test species), scale 0 to 10, 0 no effect, 10 complete control): 0 | Barnyardgrass plant response rating [2, 26]: 0 | Sugarbeets plant response rating [3, 17]: 0 | Sugarbeets plant response rating [3, 18]: 0 | Plant response rating, Sugarbeets [3, 20]: 0 | Plant response rating, Sugarbeets [3, 21]: 0 | Plant response rating, Sugarbeets [3, 22]: 0 | Sugarbeets plant response rating [3, 27]: 0 | Sugarbeets plant response rating [3, 24]: 0 | Sugarbeets plant response rating [3, 28]: 0 | Rape plant response rating [4, 17]: 0 | Rape plant response rating [4, 18]: 0 | Plant response rating, Rape [4, 20]: 0 | Plant response rating, Rape [4, 21]: 0 | Plant response rating, Rape [4, 22]: 0 | Rape plant response rating [4, 27]: 0 | Rape plant response rating [4, 24]: 0 | Rape plant response rating [4, 28]: 0

CC(C)N(C(=O)n1oc(=O)n(CO)c1=O)c1ccc(F)cc1 [Compound 470]
Cocklebur plant response rating [1, 5]: 0 | Cocklebur plant response rating [1, 6]: 0 | Plant response rating, Cocklebur [1, 7]: 0 | Plant response rating, Cocklebur [1, 8]: 0 | Cocklebur plant response rating [1, 9]: 0 | Cocklebur plant response rating [1, 16]: 0 | Cocklebur plant response rating [1, 10]: 0 | Cocklebur plant response rating [1, 11]: 0 | Plant response rating, Barnyardgrass (0 to 10 scale, 0 is no effect, 10 is complete control) [2, 12]: 0 | Barnyardgrass plant response rating (0 to 10 scale, 0 is no effect, 10 is complete control) [2, 13]: 0 | Barnyardgrass plant response rating [2, 14]: 0 | Barnyardgrass plant response rating [2, 15]: 0 | Sugarbeets plant response rating [3, 5]: 0 | Plant response rating, Sugarbeets [3, 7]: 0 | Plant response rating, Sugarbeets [3, 8]: 0 | Sugarbeets plant response rating [3, 9]: 0 | Sugarbeets plant response rating [3, 16]: 0 | Sugarbeets plant response rating [3, 10]: 0 | Sugarbeets plant response rating [3, 11]: 0 | Rape plant response rating [4, 5]: 0 | Plant response rating, Rape [4, 7]: 0 | Plant response rating, Rape [4, 8]: 0 | Rape plant response rating [4, 9]: 0 | Rape plant response rating [4, 16]: 0 | Rape plant response rating [4, 10]: 0 | Rape plant response rating [4, 11]: 0

Cc1c(-n2c(=O)on(C(=O)N(c3ccc(Cl)cc3)C(C)C)c2=O)ccc2ccccc12 [Compound 336]
Plant response rating, Cocklebur [1, 29]: 0 | Cocklebur plant response rating [1, 7]: 0 | Cocklebur plant response rating (0 to 10 scale) ([1]; Preemergence, Rate 125 g/ha): 0 | Cocklebur plant response rating [1, 22]: 0 | Cocklebur plant response rating [1, 30]: 0 | Cocklebur plant response rating [1, 10]: 0 | Plant response rating, Cocklebur [1, 28]: 0 | Barnyardgrass plant response rating ([2]; Rate 62 g/ha, headed Pre-emergence (flood test species), scale 0 to 10 (0 no effect, 10 complete control)): 0 | Barnyardgrass plant response rating ([2]; Rate 125 g/ha, Pre-emergence, flood test species, scale 0 to 10 where 0 is no effect and 10 is complete control): 0 | Barnyardgrass plant response rating ([2]; Rate 250 g/ha, Pre-emergence, flood-test species, scale 0 to 10, 0 is no effect, 10 is complete control): 0 | Barnyardgrass plant response rating [2, 15]: 0 | Plant response rating, Sugarbeets [3, 29]: 0 | Sugarbeets plant response rating [3, 7]: 0 | Sugarbeets plant response rating (0 to 10 scale) ([3]; Preemergence, Rate 125 g/ha): 0 | Sugarbeets plant response rating [3, 22]: 0 | Sugarbeets plant response rating [3, 30]: 0 | Sugarbeets plant response rating [3, 10]: 0 | Plant response rating, Sugarbeets [3, 28]: 0 | Plant response rating, Rape [4, 29]: 0 | Rape plant response rating [4, 7]: 0 | Rape plant response rating (0 to 10 scale) ([4]; Preemergence, Rate 125 g/ha): 0 | Rape plant response rating [4, 22]: 0 | Rape plant response rating [4, 30]: 0 | Rape plant response rating [4, 10]: 0 | Plant response rating, Rape [4, 28]: 0
